One experiment has as its system U2OS cells. Briefly: Cellular proliferation assay (SRB proliferation assay). Type of experiment: cell-based. Conditions: Homo sapiens, 72 h treatment, SRB staining, N=2, n=3. The protocol:
This protocol describes how the Cellular Proliferation Assay was performed to determine pIC50 values of compounds of general formula (I) against U2OS cells.
U2OS (human osteosarcoma) cells were purchased at ATCC and were tested on regular basis for mycoplasma contamination. Cultures were discarded after 2-3 months of use. Cells were cultured at 37°C under 7% CO2 in DMEM (Sigma Aldrich, D6546) supplemented with GlutaMAX (2 mM, ThermoFisher), 10% (v/v) heat-inactivated newborn calf serum (Seradigm), penicillin and streptomycin (200 µg/mL each, Duchefa) (complete medium). Medium was refreshed every 2-3 days and cells were passaged by trypsinization twice a week at 80-90% confluence. Cell viability was assessed by Trypan Blue exclusion and cell quantification using a TC20™ Automated Cell Counter (Bio-Rad).
Assays were performed in 96-well plates (Greiner, Cellstar, 655180) by seeding (day 0), treatment (day 1) and subsequent incubation for 72 h. Cells were fixed, stained and staining was subsequently dissolved after which absorbance was measured. Each assay included the following controls: (i) a background control (to which no cells were added), (ii) t0 controls (separate assay plate in which cells were fixed on day 1, used as 0% proliferation), (iii) nontreated controls (present in each assay plate, treated with vehicle and used as 100% proliferation). Cells were treated with different concentrations of indicated inhibitor. All inhibitors were tested in two separate assays and all inhibitor concentrations were tested in triplicate per assay (N=2, n=3).
For each assay, U2OS cells from 10 cm dishes were seeded into 96-well plates (3,000 cells/well) and subsequently incubated overnight to allow for cell adherence. Stocks of inhibitor and vehicle (all in DMSO) were diluted in complete medium to obtain 2x working solutions (1% DMSO). Cell medium was replaced by fresh complete medium (50 µL), treatment was started by addition of the 2x working solutions (50 µL) and plates were incubated at 37°C for 72 h. Cell medium was replaced by fresh serum free medium (100 µL) and cells were fixed by addition of 30 µL 50% (w/v) aq. trichloroacetic acid after which the plates were incubated at 4°C for 60 min. Wells were emptied by shaking the plates upside down after which wells were washed three times with demineralized water and air-dried overnight. To each well, 60 µL of SRB solution (0.4% (w/v) in 1% aq. acetic acid) was added and plates were incubated for 30 min. The excess SRB was removed and the wells were washed three times with 1% aq. acetic acid and air-dried overnight. Bound SRB was redissolved by addition of 150 µL 10 mM TRIS (free-base) and absorbance was measured at 540 nm on a CLARIOstar plate reader. Data was normalized between t0 and nontreated controls and plotted using GraphPad Prism 8.0 using "Nonlinear regression (curve fit)" and "log(inhibitor) vs. normalized response - Variable slope" to determine pIC50 values.
Inhibition is indicated as pIC50 ("-" = not measured). Compounds having an activity designated as "A" provided an pIC50 ≥ 6.0 (IC50 ≤1 µM); compounds having an activity designated as "B" provided an 5.3 ≤ pIC50 < 6.0 (1 µM<IC50 ≤ 5 µM); compounds having an activity designated as "C" provided an 5.0 ≤ pIC50 < 5.3 (5 µM < IC50 ≤ 10 µM); compounds having an activity designated as "D" provided an 5.0 < pIC50 ≤ 4.7 (10 µM < IC50 ≤ 20 µM); and compounds having an activity designated as "E" provided an pIC50 < 4.7 (IC50 >20 µM).

A further experiment has as its target T1, hBUB1 (Homo sapiens, UniProt O43683).
T1 construct: purchased Carna Biosciences 05-187
The experiment can be described thus: hBUB1 kinase activity assay (biochemical fluorescence polarization assay, IMAP). To be noted: BUB1/BUB3 3.26 nM, ATP 15 µM, BUB1/BUB3 substrate 75 nM; N=2, n=2; read-out: hBUB1 pIC50 (converted). The protocol: This protocol describes how the Kinase Activity Assay was performed to determine pIC50 values of compounds of general formula (I) against hBUB1.
Assays were performed in 384-well plates (Greiner, black, flat bottom, 781076) by sequential addition (final concentrations are indicated) of inhibitor (5 µL, 0.3 nM - 1 µM or 3 nM - 10 µM), BUB1/BUB3 (5 µL, 3.26 nM, Carna Biosciences (05-187), lot: 15CBS-0644 D), ATP (5 µL, 15 µM) and BUB1/BUB3 substrate (5 µL, 75 nM, Carna Biosciences (05-187MSSU)), all as 4x working solutions. The final concentration of DMSO was 1%. Assay reactions were stopped by addition of IMAP progressive binding reagent (20 µL, 1200x diluted, Molecular Devices (R8155), lot: 3117896). Each assay included the following controls: (i) a background control (treated with vehicle instead of inhibitor and BUB1/BUB3 substrate), (ii) MIN controls (treated with 5 µM BAY1816032 (MedChem Express) as inhibitor, used as 0% BUB1 activity) and (iii) MAX controls (treated with vehicle instead of inhibitor, used as 100% BUB1 activity). All inhibitors were tested in two separate assays and all inhibitor concentrations were tested in duplicate per assay (N=2, n=2).
For each assay, assay buffer (AB) was freshly prepared and consisted of 20 mM HEPES (prepared by diluting 1 M HEPES, pH 7.2), 5 mM MgCl2, 0.01% Tween-20 and 1 mM DTT. Stocks of inhibitors (in DMSO) were diluted in AB to obtain 4x working solutions (4% DMSO) and 5 µL was added to the assay plate. BUB1/BUB3 (3.26 µM (486 µg/mL) in storage buffer) was diluted in AB to obtain 13.0 nM of which 5 µL was added to all wells of the assay plate. The assay plate was centrifuged (1 min, 200 g) and incubated at RT for 30 min. ATP (4 mM in MilliQ) was diluted in AB to obtain 60 µM of which 5 µL was added to each well. BUB1/BUB3 substrate (1 mM) was diluted in 20 mM HEPES (prepared by diluting 1 M HEPES (pH 7.2) in MilliQ) to obtain 80 µM (this solution was freshly prepared every assay) and further diluted in AB to obtain 300 nM after which 5 µL was added to each well of the assay plate except for background control wells. The assay plate was centrifuged (1 min, 200 g) and incubated at RT in the dark for 180 min. IMAP progressive binding buffer A (5x) and IMAP progressive binding buffer B (5x) were mixed in a ratio to obtain 30% buffer A and 70% buffer B, which was subsequently diluted 5x in MilliQ. IMAP progressive binding reagent was diluted 600x in aforementioned mixture of buffer A and B (to obtain a 2x working solution) of which 20 µL was added to each well of the assay plate. The assay plate was centrifuged (1 min, 200 g) and incubated at RT in the dark for 90 min. Fluorescence polarization was measured on a CLARIOstar plate reader using the following settings: (i) optic settings → excitation = F: 482-16, dichroic = F: LP 504, emission = F: 530-40, (ii) optic = top optic, (iii) speed/precision = maximum precision, (iv) focus adjustment was performed for every assay and (v) gain adjustment was done by setting the target mP value to 35 mP for one of the MIN control wells. Data was normalized between MIN and MAX controls and data was plotted using GraphPad Prism 8.0 using "Nonlinear regression (curve fit)" and "log(inhibitor) vs. normalized response - Variable slope" to determine pIC50 values.
Inhibition is indicated as pIC50 ("-" = not measured). Compounds having an activity designated as "A" provided an pIC50 ≥ 7.0 (IC50 ≤100 nM); compounds having an activity designated as "B" provided an 6.3 ≤ pIC50 < 7.0 (100 nM<IC50 ≤ 500 nM); compounds having an activity designated as "C" provided an 6.0 ≤ pIC50 < 6.3 (500 nM < IC50 ≤ 1 µM); compounds having an activity designated as "D" provided an 6.0 < pIC50 ≤ 5.0 (1 µM < IC50 ≤ 10 µM); and compounds having an activity designated as "E" provided an pIC50 < 5.0 (IC50 >10 µM).

T1 sequence (O43683 whole entry): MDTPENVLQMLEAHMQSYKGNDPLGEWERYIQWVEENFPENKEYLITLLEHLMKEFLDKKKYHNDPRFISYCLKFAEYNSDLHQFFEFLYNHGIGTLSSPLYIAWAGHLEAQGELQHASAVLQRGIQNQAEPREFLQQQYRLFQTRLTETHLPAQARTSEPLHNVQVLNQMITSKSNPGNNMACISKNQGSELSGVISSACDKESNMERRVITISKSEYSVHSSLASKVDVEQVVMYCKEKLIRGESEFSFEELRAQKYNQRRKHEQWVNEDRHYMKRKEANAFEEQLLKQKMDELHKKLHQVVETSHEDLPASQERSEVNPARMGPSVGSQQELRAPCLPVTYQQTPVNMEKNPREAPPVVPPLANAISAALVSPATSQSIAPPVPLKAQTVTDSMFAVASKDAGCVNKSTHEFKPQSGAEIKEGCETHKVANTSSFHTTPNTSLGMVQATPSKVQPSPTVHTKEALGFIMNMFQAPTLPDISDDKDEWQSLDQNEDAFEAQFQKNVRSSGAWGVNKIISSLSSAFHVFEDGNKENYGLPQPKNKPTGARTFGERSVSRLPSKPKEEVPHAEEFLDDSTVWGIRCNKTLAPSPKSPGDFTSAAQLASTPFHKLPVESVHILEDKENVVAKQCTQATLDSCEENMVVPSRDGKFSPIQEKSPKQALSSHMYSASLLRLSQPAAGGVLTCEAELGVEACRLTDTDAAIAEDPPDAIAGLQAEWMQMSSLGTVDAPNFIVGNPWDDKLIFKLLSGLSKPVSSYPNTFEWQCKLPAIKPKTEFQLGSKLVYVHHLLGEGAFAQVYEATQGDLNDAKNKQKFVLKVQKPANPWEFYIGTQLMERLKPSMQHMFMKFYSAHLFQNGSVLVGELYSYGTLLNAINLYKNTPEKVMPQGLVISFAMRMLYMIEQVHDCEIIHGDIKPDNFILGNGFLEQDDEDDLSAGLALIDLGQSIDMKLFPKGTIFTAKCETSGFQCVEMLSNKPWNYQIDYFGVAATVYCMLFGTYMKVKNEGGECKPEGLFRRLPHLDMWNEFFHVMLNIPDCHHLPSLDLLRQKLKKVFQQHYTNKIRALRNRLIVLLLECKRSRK
T1 sequence (O43684 whole entry partner): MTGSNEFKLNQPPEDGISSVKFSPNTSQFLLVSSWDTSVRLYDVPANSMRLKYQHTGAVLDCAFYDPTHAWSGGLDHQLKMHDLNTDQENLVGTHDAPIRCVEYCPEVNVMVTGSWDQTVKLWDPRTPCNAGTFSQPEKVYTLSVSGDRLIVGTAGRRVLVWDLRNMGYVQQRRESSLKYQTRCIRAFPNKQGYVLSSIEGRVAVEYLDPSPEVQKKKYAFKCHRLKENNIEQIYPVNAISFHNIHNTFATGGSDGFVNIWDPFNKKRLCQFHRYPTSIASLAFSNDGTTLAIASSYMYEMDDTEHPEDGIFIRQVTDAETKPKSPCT

`C#Cc1cccc(-c2ncc(OC)c(Nc3c[nH]nc3-c3nc4cc(CN5CCOCC5)ccc4[nH]3)n2)c1F` [Compound 56, 2-(3-Ethynyl-2-fluorophenyl)-5-methoxy-N-(3-(5-(morpholinomethyl)-1H-benzo[d]imidazol-2-yl)-1H-pyrazol-4-yl)pyrimidin-4-amine]: the IC50 in the experiment on U2OS cells was no more than 1000 nM; on hBUB1, no more than 100 nM.
For `c1ccc(-c2nccc(Nc3c[nH]nc3-c3nc4cc(CN5CCOCC5)ccc4[nH]3)n2)cc1` [Compound 16, N-(3-(5-(morpholinomethyl)-1H-benzo[d]imidazol-2-yl)-1H-pyrazol-4-yl)-2-phenylpyrimidin-4-amine], in that order: 1000 to 5010 nM and 100 to 501 nM.
For `c1ccc(COc2nccc(Nc3c[nH]nc3-c3nc4cc(CN5CCOCC5)ccc4[nH]3)n2)cc1` [Compound 18, 2-(benzyloxy)-N-(3-(5-(morpholinomethyl)-1H-benzo[d]imidazol-2-yl)-1H-pyrazol-4-yl)pyrimidin-4-amine], in that order: 1000 to 5010 nM and 100 to 501 nM.
In the case of `Clc1cccc(-c2nccc(Nc3c[nH]nc3-c3nc4cc(CN5CCOCC5)ccc4[nH]3)n2)c1` [Compound 41, 2-(3-Chlorophenyl)-N-(3-(5-(morpholinomethyl)-1H-benzo[d]imidazol-2-yl)-1H-pyrazol-4-yl)pyrimidin-4-amine], the figures for the IC50 in the experiment with U2OS cells and on hBUB1 were 1000 to 5010 nM and no more than 100 nM, respectively.
The corresponding values for `COc1cnc(-c2cccc(C(F)(F)F)c2)nc1Nc1c[nH]nc1-c1nc2cc(CN3CCOCC3)ccc2[nH]1` [Compound 53, 5-Methoxy-N-(3-(5-(morpholinomethyl)-1H-benzo[d]imidazol-2-yl)-1H-pyrazol-4-yl)-2-(3-(trifluoromethyl)phenyl)pyrimidin-4-amine] are no more than 1000 nM and 100 to 501 nM.
The corresponding values for `c1ccc(Oc2nccc(Nc3c[nH]nc3-c3nc4cc(CN5CCOCC5)ccc4[nH]3)n2)cc1` [Compound 17, N-(3-(5-(morpholinomethyl)-1H-benzo[d]imidazol-2-yl)-1H-pyrazol-4-yl)-2-phenoxypyrimidin-4-amine] are 5010 to 10000 nM and 100 to 501 nM.
In the case of `Fc1ccc(Cl)cc1-c1nccc(Nc2c[nH]nc2-c2nc3cc(CN4CCOCC4)ccc3[nH]2)n1` [Compound 47, 2-(5-Chloro-2-fluorophenyl)-N-(3-(5-(morpholinomethyl)-1H-benzo[d]imidazol-2-yl)-1H-pyrazol-4-yl)pyrimidin-4-amine], the IC50 in the experiment with U2OS cells was 1000 to 5010 nM; on hBUB1, no more than 100 nM.
The corresponding values for `C#Cc1ccc(F)c(-c2ncc(OC)c(Nc3c[nH]nc3-c3nc4cc(CN5CCOCC5)ccc4[nH]3)n2)c1` [Compound 58, 2-(5-Ethynyl-2-fluorophenyl)-5-methoxy-N-(3-(5-(morpholinomethyl)-1H-benzo[d]imidazol-2-yl)-1H-pyrazol-4-yl)pyrimidin-4-amine] are no more than 1000 nM and no more than 100 nM.
As for `COc1cnc(-c2ccc(F)cc2)nc1Nc1c[nH]nc1-c1nc2cc(CN3CCOCC3)ccc2[nH]1` [Compound 61, 2-(4-Fluorophenyl)-5-methoxy-N-(3-(5-(morpholinomethyl)-1H-benzo[d]imidazol-2-yl)-1H-pyrazol-4-yl)pyrimidin-4-amine], the IC50 with U2OS cells was no more than 1000 nM; on hBUB1, 100 to 501 nM.
The corresponding values for `C#Cc1cccc(-c2ncc(OC)c(Nc3c[nH]nc3-c3nc4cc(CN5CCOCC5)ccc4[nH]3)n2)c1` [Compound 52, 2-(3-Ethynylphenyl)-5-methoxy-N-(3-(5-(morpholinomethyl)-1H-benzo[d]imidazol-2-yl)-1H-pyrazol-4-yl)pyrimidin-4-amine] are no more than 1000 nM and no more than 100 nM.
On to `COc1cnc(-c2cccc(C#N)c2)nc1Nc1c[nH]nc1-c1nc2cc(CN3CCOCC3)ccc2[nH]1` [Compound 54, 3-(5-Methoxy-4-((3-(5-(morpholinomethyl)-1H-benzo[d]imidazol-2-yl)-1H-pyrazol-4-yl)amino)pyrimidin-2-yl)benzonitrile], for which the IC50 in the experiment with U2OS cells was 10000 to 20000 nM; at hBUB1, no more than 100 nM.
Turning to `FC(F)(F)c1cccc(-c2nccc(Nc3c[nH]nc3-c3nc4cc(CN5CCOCC5)ccc4[nH]3)n2)c1` [Compound 43, N-(3-(5-(Morpholinomethyl)-1H-benzo[d]imidazol-2-yl)-1H-pyrazol-4-yl)-2-(3-(trifluoromethyl)phenyl)pyrimidin-4-amine], the IC50 was 1000 to 5010 nM with U2OS cells and 501 to 1000 nM on hBUB1.
Turning to `C#Cc1cccc(-c2nccc(Nc3c[nH]nc3-c3nc4cc(CN5CCOCC5)ccc4[nH]3)n2)c1F` [Compound 46, 2-(3-Ethynyl-2-fluorophenyl)-N-(3-(5-(morpholinomethyl)-1H-benzo[d]imidazol-2-yl)-1H-pyrazol-4-yl)pyrimidin-4-amine], the IC50 in the experiment on U2OS cells was no more than 1000 nM; at hBUB1, no more than 100 nM.

The values are drawn from patent EP4293019A1, “4-SUBSTITUTED (1H-BENZO[D]IMIDAZOL-2-YL)-1H-PYRAZOLES AS BUB1 INHIBITORS USEFUL FOR TREATING CANCERS” (Netherlands Translational Research Center Holding B.V., priority 2022, dated 2023).
